Data: PubChem BioAssay AID1963961 (Molecular Pharmacology Branch, DTP, NCI, 2024)
One block for each compound: values may come before it.

Tested on: K98450-129-R-PDC multicell spheroids, viability
Assay: Anticancer human tumor K98450-129-R-PDC patient-derived colon adenocarcinoma cell line growth inhibition [PI3K]
Details: for IC50: curve of first compound; for viability, T/C: stronger effect = lower value
Procedure, shortened: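 Multi-cell spheroids combine tumor cells with HUVEC and human MSCs, treated with targeted agents alone or with inavolisib, alpelisib, duvelisib or copanlisib. Concentrations fall in half-log steps from at or near clinical Cmax, or from 10 microM where Cmax is unknown; viability read-out.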

[1] = second compound 0.0316 µM, first compound 0.0316 µM
[2] = second compound 0.0316 µM, first compound 0.1 µM
[3] = second compound 0.0316 µM, first compound 0.316 µM
[4] = second compound 0.0316 µM, first compound 1 µM
[5] = second compound 0.1 µM, first compound 0.0316 µM
[6] = second compound 0.1 µM, first compound 0.1 µM
[7] = second compound 0.1 µM, first compound 0.316 µM
[8] = second compound 0.1 µM, first compound 1 µM
[9] = second compound 0.316 µM, first compound 0.0316 µM
[10] = second compound 0.316 µM, first compound 0.1 µM
[11] = second compound 0.316 µM, first compound 0.316 µM
[12] = second compound 0.316 µM, first compound 1 µM
[13] = second compound 1 µM, first compound 0.0316 µM
[14] = second compound 1 µM, first compound 0.1 µM
[15] = second compound 1 µM, first compound 0.316 µM
[16] = second compound 1 µM, first compound 1 µM
[17] = second compound 3.16 µM, first compound 0.0316 µM
[18] = second compound 3.16 µM, first compound 0.1 µM
[19] = second compound 3.16 µM, first compound 0.316 µM
[20] = second compound 3.16 µM, first compound 1 µM
[21] = second compound 10 µM, first compound 0.0316 µM
[22] = second compound 10 µM, first compound 0.1 µM
[23] = second compound 10 µM, first compound 0.316 µM
[24] = second compound 10 µM, first compound 1 µM
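Also: spheroids exposed to agents for seven days before read-out.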

IC50 (second compound 0.0316 µM): > 10 µM | IC50 (second compound 0.1 µM): > 10 µM | IC50 (second compound 0.316 µM): > 10 µM | IC50 (second compound 1 µM): > 10 µM | IC50 (second compound 3.16 µM): > 10 µM | IC50 (second compound 10 µM): > 10 µM
Compound: CC(C)NCC(C(=O)N1CCN(c2ncnc3c2C(C)CC3O)CC1)c1ccc(Cl)cc1 (centres undefined) + Cc1nc(NC(=O)N2CCCC2C(N)=O)sc1-c1ccnc(C(C)(C)C(F)(F)F)c1
viability, T/C [1]: 104% | viability, T/C [2]: 99.1% | viability, T/C [3]: 107% | viability, T/C [4]: 104% | viability, T/C (second compound 0.0316 µM, first compound 3.16 µM): 100% | viability, T/C (second compound 0.0316 µM, first compound 10 µM): 102% | viability, T/C [5]: 108% | viability, T/C [6]: 98.8% | viability, T/C [7]: 103% | viability, T/C [8]: 100% | viability, T/C (second compound 0.1 µM, first compound 3.16 µM): 103% | viability, T/C (second compound 0.1 µM, first compound 10 µM): 99.9% | viability, T/C [9]: 104% | viability, T/C [10]: 105% | viability, T/C [11]: 104% | viability, T/C [12]: 95.2% | viability, T/C (second compound 0.316 µM, first compound 3.16 µM): 101% | viability, T/C (second compound 0.316 µM, first compound 10 µM): 97% | viability, T/C [13]: 84.6% | viability, T/C [14]: 93.1% | viability, T/C [15]: 96.5% | viability, T/C [16]: 89.6% | viability, T/C (second compound 1 µM, first compound 3.16 µM): 102% | viability, T/C (second compound 1 µM, first compound 10 µM): 94.5% | viability, T/C [17]: 86.6% | viability, T/C [18]: 84.1% | viability, T/C [19]: 90.2% | viability, T/C [20]: 80.3% | viability, T/C (second compound 3.16 µM, first compound 3.16 µM): 95.6% | viability, T/C (second compound 3.16 µM, first compound 10 µM): 91.1% | viability, T/C [21]: 70.7% | viability, T/C [22]: 78% | viability, T/C [23]: 77% | viability, T/C [24]: 73.1% | viability, T/C (second compound 10 µM, first compound 3.16 µM): 78.1% | viability, T/C (second compound 10 µM, first compound 10 µM): 75%

IC50 (second compound 0.0316 µM): > 1 µM | IC50 (second compound 0.1 µM): > 1 µM | IC50 (second compound 0.316 µM): > 1 µM | IC50 (second compound 1 µM): > 1 µM | IC50 (second compound 3.16 µM): > 1 µM | IC50 (second compound 10 µM): > 1 µM
Compound: CCN1CCN(Cc2ccc(Nc3ncc(F)c(-c4cc(F)c5nc(C)n(C(C)C)c5c4)n3)nc2)CC1 + Cc1nc(NC(=O)N2CCCC2C(N)=O)sc1-c1ccnc(C(C)(C)C(F)(F)F)c1
viability, T/C (second compound 0.0316 µM, first compound 0.00316 µM): 115% | viability, T/C (second compound 0.0316 µM, first compound 0.01 µM): 97.7% | viability, T/C [1]: 106% | viability, T/C [2]: 91.1% | viability, T/C [3]: 86.9% | viability, T/C [4]: 94.8% | viability, T/C (second compound 0.1 µM, first compound 0.00316 µM): 115% | viability, T/C (second compound 0.1 µM, first compound 0.01 µM): 95.9% | viability, T/C [5]: 99.8% | viability, T/C [6]: 93.5% | viability, T/C [7]: 96.8% | viability, T/C [8]: 91.1% | viability, T/C (second compound 0.316 µM, first compound 0.00316 µM): 103% | viability, T/C (second compound 0.316 µM, first compound 0.01 µM): 102% | viability, T/C [9]: 91.1% | viability, T/C [10]: 87.7% | viability, T/C [11]: 85.3% | viability, T/C [12]: 96% | viability, T/C (second compound 1 µM, first compound 0.00316 µM): 98.3% | viability, T/C (second compound 1 µM, first compound 0.01 µM): 89.4% | viability, T/C [13]: 91.2% | viability, T/C [14]: 87.4% | viability, T/C [15]: 84.6% | viability, T/C [16]: 85.6% | viability, T/C (second compound 3.16 µM, first compound 0.00316 µM): 84.8% | viability, T/C (second compound 3.16 µM, first compound 0.01 µM): 80.6% | viability, T/C [17]: 86.2% | viability, T/C [18]: 84.7% | viability, T/C [19]: 79.3% | viability, T/C [20]: 83.5% | viability, T/C (second compound 10 µM, first compound 0.00316 µM): 73.7% | viability, T/C (second compound 10 µM, first compound 0.01 µM): 75.9% | viability, T/C [21]: 70.6% | viability, T/C [22]: 67.5% | viability, T/C [23]: 67% | viability, T/C [24]: 70.4%
